Molecular target: T1, PD brain-derived a-syn aggregates (Homo sapiens, UniProt P37840)
T1 construct: from tissue; host or cells: human PD donor brain, sarkosyl-insoluble 100,000 x g pellet
Experiment: Micro-radiobinding competition assay against Example-1 [^3H-1] (Table 8)
Format: binding
Conditions: for Competition at 100 nM (%): 100 nM non-radiolabelled example compound vs Example-1 [^3H-1] ligand; for Competition at 100 nM (%) / Competition at 1 μM (%): human PD brain-derived a-syn aggregates; for Competition at 1 μM (%): 1 μM non-radiolabelled example compound vs Example-1 [^3H-1] ligand
Procedure: PD brain-derived a-syn aggregates were spotted onto microarray slides. The slides were incubated with the Example-1 [^3H-1] at 6 nM or 20 nM and the example compounds (non-radiolabelled) at 1 μM and 100 nM. In some cases, the non-radiolabelled example compounds were further assessed for a range of different concentrations, varying from 0.05 nM to 2 μM. After incubation, slides were washed and scanned by a real-time autoradiography system (BeaQuant, ai4R). Quantification of the signal was performed by using the Beamage image analysis software (ai4R). […] All measurements were performed with at least two technical replicates. For compounds tested in more than one experiment, the mean of the replicates or K; values in independent experiments is reported.
Results: Example compounds were assessed for their potency to compete with the binding of Example-1 [^3H-1] ligand to PD patient brain-derived a-syn aggregates. Results of the micro-radiobinding competition assay for the example compounds tested are shown in Table 8 as: % competition at 1 μM and 100 nM.

SMILES	Competition at 100 nM (%)	Competition at 1 μM (%)	Ki (mean of Ki values in independent experiments using PD brain-derived homogenates from two different donors) [nM]
O=C1c2cn(-c3ccc(N4CCCC4)nc3)nc2CN1c1ccnc(F)c1 [Example 41]	61	93	
O=C1c2cn(-c3ccc(N4CC[C@@H](F)C4)nc3)nc2CN1c1ccccc1 [Example 51]	80	100	
COc1ccccc1N1Cc2nn(-c3ccc(N4CC[C@H](F)C4)nc3)cc2C1=O [Example 37]	37		
Cn1cc(N2Cc3nn(-c4ccc(N5CC(F)C5)nc4)cc3C2=O)cn1 [Example 124]	61	98	
N#Cc1ccc(N2Cc3nn(-c4ccc(N5CC[C@H](F)C5)nc4)cc3C2=O)nc1 [Example 31]	86		
Cn1cc(-n2cc3c(n2)CN(c2cccc(F)n2)C3=O)cn1 [Example 150]	37	46	
COc1ccc(-n2cc3c(n2)CN(c2cccnc2)C3=O)cn1 [Example 130]	74	85	
O=C1c2cn(-c3ccc(N4CCCC4)nc3)nc2CN1c1cnn(CCF)c1 [Example 129]	25	74	
O=C1c2cn(-c3ccc(N4CC[C@@H](F)C4)nc3)nc2CN1c1cccc(O)c1 [Example 177]	76	100	
N#Cc1ccc(N2Cc3nn(-c4ccc(N5CC[C@@H](F)C5)nc4)cc3C2=O)cc1 [Example 56]	93		
N#Cc1cccc(N2Cc3nn(-c4ccc(N5CC[C@H](F)C5)nc4)cc3C2=O)n1 [Example 84]	14	38	
Cc1c2c(nn1-c1ccc(N3CC[C@H](F)C3)nc1)CN(c1cccnc1)C2=O [Example 53]	27	54	
CC(C)c1ccc(-n2cc3c(n2)CN(c2cccc(F)n2)C3=O)cn1 [Example 157]	21	43	
O=C1c2cn(-c3ccc(N4CC[C@@H](F)C4)nc3)nc2CN1c1ccns1 [Example 125]	80	99	
CC(C)n1cc(N2Cc3nn(-c4ccc(N5CC[C@H](F)C5)nc4)cc3C2=O)cn1 [Example 119]	12	51	
COc1ccc(N2Cc3nn(-c4ccc(N5CC[C@H](F)C5)nc4)cc3C2=O)nc1 [Example 28]	89	99	
O=C1c2cn(-c3ccc(NC4CC(F)C4)nc3)nc2CN1c1ccncc1 (stereo not shown) [Example 90]	18	51	
O=C1c2cn(-c3ccc(N4CC[C@H](F)C4)nc3)nc2CN1c1nccs1 [Example 136]	75		
CC(C)Oc1ccc(-n2cc3c(n2)CN(c2cncc(F)n2)C3=O)cn1 [Example 158]	19	54	
Cc1cnccc1N1Cc2nn(-c3ccc(N4CC[C@H](F)C4)nc3)cc2C1=O [Example 123]	32	58	
O=C1c2cn(-c3ccc(N4CC[C@@H](F)C4)cc3)nc2CN1c1cccnc1 [Example 85]	72	99	
N#Cc1cccc(N2Cc3nn(-c4ccc(N5CC[C@@H](F)C5)nc4)cc3C2=O)c1 [Example 67]	71		
N#Cc1ccnc(N2Cc3nn(-c4ccc(N5CC[C@H](F)C5)nc4)cc3C2=O)c1 [Example 88]	75		
O=C1c2cn(-c3ccc(N4CC[C@@H](F)C4)nc3)nc2CN1c1cnsc1 [Example 131]	72	98	

SMILES	Competition at 100 nM (%)	Competition at 1 μM (%)	Ki (mean of Ki values in independent experiments using PD brain-derived homogenates from two different donors) [nM]
Cn1cnc(N2Cc3nn(-c4ccc(N5CC[C@@H](F)C5)nc4)cc3C2=O)c1 [Example 133]	59		
N#Cc1cccc(N2Cc3nn(-c4ccc(N5CC[C@@H](F)C5)nc4)cc3C2=O)n1 [Example 79]	74		
COc1ccnc(N2Cc3nn(-c4ccc(N5CC[C@@H](F)C5)nc4)cc3C2=O)c1 [Example 76]	69	93	
O=C1c2cn(-c3ccc(N4CC[C@@H](F)C4)nc3)nc2CN1c1cccc(O)n1 [Example 164]	44	87	
COc1cccc(N2Cc3nn(-c4ccc(N5CC[C@H](F)C5)nc4)cc3C2=O)c1 [Example 36]	74	91	
COc1ccc(N2Cc3nn(-c4ccc(N5CC[C@H](F)C5)nc4)cc3C2=O)cn1 [Example 9]	69	90	
CN(C)c1ccc(-n2cc3c(n2)CN(c2cccnc2)C3=O)cn1 [Example 135]	67	96	
N#Cc1cc(N2Cc3nn(-c4ccc(N5CC[C@H](F)C5)nc4)cc3C2=O)ccn1 [Example 111]	82	97	
N#Cc1ccnc(N2Cc3nn(-c4ccc(N5CC[C@@H](F)C5)nc4)cc3C2=O)c1 [Example 86]	64		
O=C1c2cn(-c3ccc(N4CCCC4)nc3)nc2CN1c1cccc(F)n1 [Example 140]	67		
N#Cc1cncc(N2Cc3nn(-c4ccc(N5CC[C@@H](F)C5)nc4)cc3C2=O)c1 [Example 109]	67		
COc1ccc(N2Cc3nn(-c4ccc(N5CC[C@@H](F)C5)nc4)cc3C2=O)nc1 [Example 58]	85	98	
Cc1ccc(N2Cc3nn(-c4ccc(N5CC[C@@H](F)C5)nc4)cc3C2=O)cc1 [Example 60]	70	71	
COc1cccc(N2Cc3nn(-c4ccc(N5CC[C@@H](F)C5)nc4)cc3C2=O)c1 [Example 34]	80	89	
Cc1cccc(N2Cc3nn(-c4ccc(N5CC[C@@H](F)C5)nc4)cc3C2=O)n1 [Example 75]	58	73	
O=C1c2cn(-c3ccc(N4CCOCC4)nc3)nc2CN1c1nccnc1F [Example 45]	78	92	52
COc1ccccc1N1Cc2nn(-c3ccc(N4CC[C@@H](F)C4)nc3)cc2C1=O [Example 62]	8	27	
O=C1c2cn(-c3ccc(N4CC[C@@H](F)C4)nc3)nc2CN1c1cncnc1 [Example 14]	42	77	
O=C1c2cn(-c3ccc(N4CC[C@H](F)C4)nc3)nc2CN1c1cncnc1 [Example 16]	32	70	
O=C1c2cn(-c3ccc(N4CC[C@@H](F)C4)nc3)nc2CN1c1ccc(F)cc1 [Example 63]	79	96	
O=C1c2cn(-c3ccc(N4CC[C@H](F)C4)nc3)nc2CN1c1cccc(O)c1 [Example 178]	77	103	
N#Cc1ccc(N2Cc3nn(-c4ccc(N5CC[C@@H](F)C5)nc4)cc3C2=O)cn1 [Example 57]	88		
N#Cc1cc(N2Cc3nn(-c4ccc(N5CC[C@@H](F)C5)nc4)cc3C2=O)ccc1N [Example 23]		81	
